How the values were obtained:
[1] = target: T1, recombinant human ALK5 (TGF-βR1) protein (Homo sapiens, UniProt P36897); assay: Biochemical ALK5 (TGF-βR1) assay to measure pKi (LANCE Ultra ULight kinase assay); conditions: apparent pKi from pIC50 by Cheng-Prusoff, read-out: ALK5 pKi (converted)
T1 construct: purchased Life Technologies PR9075A
T1 sequence (P36897 34-503): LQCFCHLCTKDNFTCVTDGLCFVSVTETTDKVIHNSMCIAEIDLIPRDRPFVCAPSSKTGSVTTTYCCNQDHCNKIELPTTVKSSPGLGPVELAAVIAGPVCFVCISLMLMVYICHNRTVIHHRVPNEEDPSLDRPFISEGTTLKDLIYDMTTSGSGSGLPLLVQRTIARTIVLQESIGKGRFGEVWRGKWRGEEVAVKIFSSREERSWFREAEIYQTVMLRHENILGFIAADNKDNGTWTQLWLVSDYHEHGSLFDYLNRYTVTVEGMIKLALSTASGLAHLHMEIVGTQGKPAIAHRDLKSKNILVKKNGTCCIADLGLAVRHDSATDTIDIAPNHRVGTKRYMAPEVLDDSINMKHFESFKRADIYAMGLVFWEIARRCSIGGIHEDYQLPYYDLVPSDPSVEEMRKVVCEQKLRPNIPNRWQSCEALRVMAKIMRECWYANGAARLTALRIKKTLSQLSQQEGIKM
How it was run: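 Compounds (10 μM to 25 pM) were preincubated 60 min at room temperature with enzyme, then reactions were started with ATP (125 μM stock, 5× final) and run 60 min at 37 °C. EDTA-containing Eu-anti-phospho-Topo IIα (Thr1342) antibody stopped the reaction; TR-FRET read at 665 nm. pIC50 from 4-parameter fit, converted to pKi via Cheng-Prusoff.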

[2] = tested on: TGF-β-stimulated SMAD3 phosphorylation in BEAS-2B cells; assay: Cellular ALK5 potency assay, inhibition of TGF-β stimulated pSMAD3 formation in BEAS-2B cells; assay type: cell-based; conditions: Homo sapiens; inhibition of TGF-β stimulated pSMAD3 formation, BEAS-2B cells; read-out: BEAS2B pIC50 (converted)
How it was run: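 pSMAD3 was quantified by AlphaLISA in BEAS-2B lysates after 10 ng/mL TGF-β (final) for 30 min. Before stimulation, cells received compound for 1 h at 37° C in supplemented HBSS. Values are pIC50, relative to TGF-β-stimulated cells without compound.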

Row | SMILES | Ki [1] [nM] | IC50 [2] [nM]
1 | Cc1cccc(-c2n[nH]cc2-c2ccc3ncc(-c4coc(CCN5CCNCC5)n4)cc3n2)n1 [Compound 697, 4-[6-[3-(6-methyl-2-pyridyl)-1H-pyrazol-4-yl]-1,5-naphthyridin-3-yl]-2-(2-piperazin-1-ylethyl)oxazole] | 0.0398 to 0.316 | 200 to 1260
2 | Cc1nc(-c2n[nH]cc2-c2ccc3ncc(-c4[nH]nc5c4CCN5)cc3n2)ccc1F [Compound 515, 2-[3-(5-fluoro-6-methyl-2-pyridyl)-1H-pyrazol-4-yl]-7-(2,4,5,6-tetrahydropyrrolo[2,3-c]pyrazol-3-yl)-1,5-naphthyridine] | < 0.0316 | 25.1 to 158
3 | Cc1nc(-c2n[nH]cc2-c2ccc3ncc(N4CCNCC4)cc3n2)ccc1F [Compound 661, 2-[3-(5-fluoro-6-methyl-2-pyridyl)-1H-pyrazol-4-yl]-7-piperazin-1-yl-1,5-naphthyridine] | 0.0398 to 0.316 | < 20
4 | Cc1cccc(-c2n[nH]cc2-c2ccc3ncc(N4CC5CNCC54)cc3n2)n1 (centres unmarked) [Compound 260, 7-(3,6-diazabicyclo[3.2.0]heptan-6-yl)-2-[3-(6-methyl-2-pyridyl)-1H-pyrazol-4-yl]-1,5-naphthyridine] | 0.398 to 3.16 | 200 to 1260
5 | CNC1CCN(c2cnc3ccc(-c4c[nH]nc4-c4cccc(C)n4)nc3c2)CC1 [Compound 45, N-methyl-1-[6-[3-(6-methyl-2-pyridyl)-1H-pyrazol-4-yl]-1,5-naphthyridin-3-yl]piperidin-4-amine] | < 0.0316 | 25.1 to 158
6 | Cc1cccc(-c2n[nH]cc2-c2ccc3ncc(N4CCN(C5(C(N)=O)CCCC5)CC4)cc3n2)n1 [Compound 528, 1-[4-[6-[3-(6-methyl-2-pyridyl)-1H-pyrazol-4-yl]-1,5-naphthyridin-3-yl]piperazin-1-yl]cyclopentanecarboxamide] | 0.398 to 3.16 | 200 to 1260
7 | Cc1cccc(-c2n[nH]cc2-c2ccc3ncc(-c4ccc(C5CCCN(Cc6ccccc6)C5)cc4)cc3n2)n1 (centres unmarked) [Compound 251, 7-[4-(1-benzyl-3-piperidyl)phenyl]-2-[3-(6-methyl-2-pyridyl)-1H-pyrazol-4-yl]-1,5-naphthyridine] | 0.0398 to 0.316 | 200 to 1260
8 | Cc1cccc(-c2n[nH]cc2-c2ccc3ncc(N4C[C@@H]5C[C@H]4CN5)cc3n2)n1 [Compound 220, 7-[(1S,4S)-2,5-diazabicyclo[2.2.1]heptan-2-yl]-2-[3-(6-methyl-2-pyridyl)-1H-pyrazol-4-yl]-1,5-naphthyridine] | 0.398 to 3.16 | 25.1 to 158
9 | Cc1cccc(-c2[nH]cnc2-c2ccc3nccc(C(=O)O)c3c2)n1 [Compound 1097, 6-[5-(6-methyl-2-pyridyl)-1H-imidazol-4-yl]quinoline-4-carboxylic acid] | 0.398 to 3.16 | 200 to 1260
10 | Cc1cccc(-c2nc3ccccn3c2-c2ccc3ncc(-c4nnn5c4CNCC5)cc3n2)n1 [Compound 207, 2-[2-(6-methyl-2-pyridyl)imidazo[1,2-a]pyridin-3-yl]-7-(4,5,6,7-tetrahydrotriazolo[1,5-a]pyrazin-3-yl)-1,5-naphthyridine] | 0.0398 to 0.316 | 25.1 to 158
11 | Cc1cccc(-c2nn3c(c2-c2ccc4ncc(-c5cn[nH]c5)cc4c2)CNCC3)n1 [Compound 402, 6-[2-(6-methyl-2-pyridyl)-4,5,6,7-tetrahydropyrazolo[1,5-a]pyrazin-3-yl]-3-(1H-pyrazol-4-yl)quinoline] | 0.0398 to 0.316 | 25.1 to 158
12 | Cc1cccc(-c2n[nH]cc2-c2ccc3nccc(CCCN4CCOCC4)c3n2)n1 [Compound 812, 4-[3-[6-[3-(6-methyl-2-pyridyl)-1H-pyrazol-4-yl]-1,5-naphthyridin-4-yl]propyl]morpholine] | 0.398 to 3.16 | 200 to 1260
13 | Cc1cccc(-c2n[nH]cc2-c2ccc3ncc(N4CC(CN)C4)cc3n2)n1 [Compound 279, [1-[6-[3-(6-methyl-2-pyridyl)-1H-pyrazol-4-yl]-1,5-naphthyridin-3-yl]azetidin-3-yl]methanamine] | 0.0398 to 0.316 | 25.1 to 158
14 | Cc1cccc(-c2n[nH]cc2-c2ccc3ncc(-c4nnc5n4CCNC5)cc3n2)n1 [Compound 40, 2-[3-(6-methyl-2-pyridyl)-1H-pyrazol-4-yl]-7-(5,6,7,8-tetrahydro-[1,2,4]triazolo[4,3-a]pyrazin-3-yl)-1,5-naphthyridine] | 3.98 to 31.6 | 1580 to 10000
15 | CNCCn1cc(-c2cnc3ccc(-c4nc[nH]c4-c4ccc(F)c(C)n4)nc3c2)cn1 [Compound 559, 2-[4-[6-[5-(5-fluoro-6-methyl-2-pyridyl)-1H-imidazol-4-yl]-1,5-naphthyridin-3-yl]pyrazol-1-yl]-N-methyl-ethanamine] | 0.0398 to 0.316 | 25.1 to 158
16 | Cc1cccc(-c2[nH]ncc2-c2ccc3ncc(C(=O)O[C@H]4CCN(C)C4)cc3n2)n1 [Compound 563, [(3S)-1-methylpyrrolidin-3-yl]6-[5-(6-methyl-2-pyridyl)-1H-pyrazol-4-yl]-1,5-naphthyridine-3-carboxylate] | 0.0398 to 0.316 | 25.1 to 158
17 | Cc1cccc(-c2nc3ccccn3c2-c2ccc3ncc(Br)cc3n2)n1 [Compound 657, 7-bromo-2-[2-(6-methyl-2-pyridyl)imidazo[1,2-a]pyridin-3-yl]-1,5-naphthyridine] | 0.0398 to 0.316 | 25.1 to 158
18 | Cc1cccc(-c2nnn(Cc3ccccc3)c2-c2ccc3ncc(N4CCCNCC4)cc3n2)n1 [Compound 257, 2-[3-benzyl-5-(6-methyl-2-pyridyl)triazol-4-yl]-7-(1,4-diazepan-1-yl)-1,5-naphthyridine] | 0.0398 to 0.316 | 200 to 1260

Continued, in another order:

Row | Ki [1] [nM] | SMILES | IC50 [2] [nM]
19 | 0.0398 to 0.316 | Cc1cccc(-c2[nH]cnc2-c2ccc3ncc(C(=O)OCCCN4CC5(CCNCC5)C4)cc3c2)n1 [Compound 903, 3-(2,7-diazaspiro[3.5]nonan-2-yl)propyl 6-(5-(6-methylpyridin-2-yl)-1H-imidazol-4-yl)quinoline-3-carboxylate] | 200 to 1260
20 | 0.398 to 3.16 | Cc1cccc(-c2[nH]cnc2-c2ccc3ncc(C(=O)OC[C@H]4CCCCN4)cc3c2)n1 [Compound 884, (R)-piperidin-2-ylmethyl 6-(5-(6-methylpyridin-2-yl)-1H-imidazol-4-yl)quinoline-3-carboxylate] | 25.1 to 158
21 | 0.0398 to 0.316 | Cc1cccc(-c2[nH]cnc2-c2ccc3ncc(-c4ccnc(C(=O)OCCN5CCNCC5)c4)cc3c2)n1 [Compound 1099, 2-piperazin-1-ylethyl 4-[6-[5-(6-methyl-2-pyridyl)-1H-imidazol-4-yl]-3-quinolyl]pyridine-2-carboxylate] | 200 to 1260
22 | < 0.0316 | Cc1cccc(-c2[nH]cnc2-c2ccc3ncc(-c4csc(C(=O)OC[C@@H]5CCC[C@@H](N)C5)c4)cc3c2)n1 (racemic) [Compound 1215, [rac-(1R,3R)-3-aminocyclohexyl]methyl 4-[6-[5-(6-methyl-2-pyridyl)-1H-imidazol-4-yl]-3-quinolyl]thiophene-2-carboxylate] | 25.1 to 158
23 | < 0.0316 | Cc1nc(-c2n[nH]cc2-c2ccc3ncc(-c4cnn(C[C@H]5CCC[C@H](N)C5)c4)cc3n2)ccc1F (racemic) [Compound 395, rac-(1S,3S)-3-[[4-[6-[3-(5-fluoro-6-methyl-2-pyridyl)-1H-pyrazol-4-yl]-1,5-naphthyridin-3-yl]pyrazol-1-yl]methyl]cyclohexanamine] | 25.1 to 158
24 | 0.398 to 3.16 | Cc1cccc(-c2[nH]cnc2-c2ccc3ncc(C(=O)O[C@@H]4CCCNC4)cc3c2)n1 [Compound 781, [(3R)-3-piperidyl] 6-[5-(6-methyl-2-pyridyl)-1H-imidazol-4-yl]quinoline-3-carboxylate] | 25.1 to 158
25 | 0.0398 to 0.316 | Cc1cccc(-c2[nH]cnc2-c2ccc3ncc(NC4CNC4)cc3c2)n1 [Compound 50, N-(azetidin-3-yl)-6-[5-(6-methyl-2-pyridyl)-1H-imidazol-4-yl]quinolin-3-amine] | 25.1 to 158
26 | 0.0398 to 0.316 | Cc1cccc(-c2[nH]cnc2-c2ccc3ncc(-c4ncc(C(=O)O)s4)cc3c2)n1 [Compound 1017, 2-(6-(5-(6-methylpyridin-2-yl)-1H-imidazol-4-yl)quinolin-3-yl)thiazole-5-carboxylic acid] | 1580 to 10000
27 | < 0.0316 | Cc1cccc(-c2[nH]cnc2-c2ccc3ncc(C4=CCC(NCC(CCO)C(=O)O)CC4)cc3c2)n1 (centres unmarked) [Compound 150, 4-hydroxy-2-[[[4-[6-[5-(6-methyl-2-pyridyl)-1H-imidazol-4-yl]-3-quinolyl]cyclohex-3-en-1-yl]amino]methyl]butanoic acid] | 200 to 1260
28 | < 0.0316 | Cc1cccc(-c2[nH]cnc2-c2ccc3ncc(N4CCC5(CCNC5)C4)cc3c2)n1 (centres unmarked) [Compound 387, 3-(2,7-diazaspiro[4.4]nonan-2-yl)-6-[5-(6-methyl-2-pyridyl)-1H-imidazol-4-yl]quinoline] | 25.1 to 158
